Source: US9585886B2, “ASK1 inhibiting pyrrolopyrimidine derivatives” (CALCHAN LIMITED, priority 2010, dated 2017)

Legend:
human ASK1 kinase = biological target: T1, human ASK1 kinase (Homo sapiens, UniProt Q99683); assay: Determination of ASK1 inhibitor activity (IMAP FP assay of example 52 or AlphaLISA assay of example 53)
T1 sequence (Q99683 1-1374): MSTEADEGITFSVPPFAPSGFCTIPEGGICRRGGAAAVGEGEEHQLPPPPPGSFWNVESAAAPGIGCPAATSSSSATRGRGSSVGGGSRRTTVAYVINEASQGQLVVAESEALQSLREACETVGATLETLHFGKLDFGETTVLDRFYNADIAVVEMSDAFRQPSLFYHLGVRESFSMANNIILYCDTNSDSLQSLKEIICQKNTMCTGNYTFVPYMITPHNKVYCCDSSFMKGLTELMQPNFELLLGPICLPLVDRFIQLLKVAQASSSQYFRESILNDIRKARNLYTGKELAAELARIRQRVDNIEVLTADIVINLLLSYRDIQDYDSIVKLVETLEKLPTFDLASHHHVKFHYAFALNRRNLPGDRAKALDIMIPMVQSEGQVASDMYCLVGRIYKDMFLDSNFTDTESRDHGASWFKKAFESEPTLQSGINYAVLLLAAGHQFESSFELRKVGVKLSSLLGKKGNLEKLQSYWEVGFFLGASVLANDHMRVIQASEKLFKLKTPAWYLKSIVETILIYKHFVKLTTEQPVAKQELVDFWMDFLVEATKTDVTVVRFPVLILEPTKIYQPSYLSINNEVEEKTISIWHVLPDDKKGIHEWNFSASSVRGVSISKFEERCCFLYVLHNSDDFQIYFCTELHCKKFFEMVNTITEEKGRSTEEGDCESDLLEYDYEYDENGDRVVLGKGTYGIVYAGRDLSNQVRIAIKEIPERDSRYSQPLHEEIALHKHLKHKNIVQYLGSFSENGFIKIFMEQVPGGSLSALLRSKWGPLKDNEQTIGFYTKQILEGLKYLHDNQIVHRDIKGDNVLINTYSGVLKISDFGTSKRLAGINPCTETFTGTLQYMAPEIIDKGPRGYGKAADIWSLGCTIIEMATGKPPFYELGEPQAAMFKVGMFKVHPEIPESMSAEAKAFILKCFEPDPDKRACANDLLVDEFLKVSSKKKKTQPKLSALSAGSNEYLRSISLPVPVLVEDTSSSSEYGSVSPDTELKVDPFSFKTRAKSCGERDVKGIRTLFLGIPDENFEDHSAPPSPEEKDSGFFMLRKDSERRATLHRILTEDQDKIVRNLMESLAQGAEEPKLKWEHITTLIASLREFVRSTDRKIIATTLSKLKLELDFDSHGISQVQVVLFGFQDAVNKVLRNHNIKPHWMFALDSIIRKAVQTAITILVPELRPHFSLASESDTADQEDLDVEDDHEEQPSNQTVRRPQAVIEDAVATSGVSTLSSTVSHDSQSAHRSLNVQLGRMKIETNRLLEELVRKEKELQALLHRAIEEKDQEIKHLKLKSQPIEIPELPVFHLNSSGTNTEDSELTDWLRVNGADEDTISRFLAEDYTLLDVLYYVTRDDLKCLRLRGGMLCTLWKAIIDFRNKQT

[1] = tested on: CCI-induced mechanical allodynia; details: rat CCI model
[2] = tested on: FCA-induced inflammatory mechanical hypersensitivity

IC50 (human ASK1 kinase)	SMILES	effect on mechanical allodynia caused by nerve injury in the CCI model [1]	effect on inflammatory mechanical hypersensitivity caused by FCA (weightbearing) ([2]; dosed orally 24 hours after FCA injection, at 30 mg/kg)	effect on inflammatory mechanical hypersensitivity (FIG. 2, weightbearing) ([2]; rats, 3 mg/kg po and 30 mg/kg po, 24 hours after intraplantar FCA, measured 1 hour after dosing)
25.1 µM	O=C(NC1CCN(c2nc[nH]c3nccc2-3)CC1)c1ccc(N2CCCC2)cc1 [4-(1-pyrrolidinyl)-N-[1-(1H-pyrrolo[2,3-d]pyrimidin-4-yl)-4-piperidinyl]benzamide]	–	–	–
–	Cc1c[nH]c2ncnc(N3CCC(NC(=O)c4ccccc4)CC3)c12 [Example 17]	partially reversed the mechanical allodynia	partially reverse the inflammatory mechanical hypersensitivity	reverses inflammatory mechanical hypersensitivity
